This is an account of results in publication PMC10689823, “Discovery of a Drug-like, Natural Product-Inspired DCAF11 Ligand Chemotype” (Nature Communications, 2023).

Several values for one entry are separate records, joined by “and”; a condition that tells them apart may be missing. Equal values may be shown once.

For the assay, the system named is BRD2. Put plainly: In-Cell Western for BRD2 levels in Hep G2 cells. It is filed as cell-based. The procedure, abridged:
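Hep G2 cells were treated with compound for the indicated time and concentration. After fixation and permeabilisation, BRD2 was immunostained and read by near-infrared imaging. BRD2 signal was normalised to vinculin.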

As to `Cc1sc2c(c1C)C(c1ccc(Cl)cc1)=N[C@@H](CC(=O)NCCOCCOCCOCCOCCNC(=O)COc1c(Br)cc(/C=C3\C(=O)Nc4ccc(Br)cc43)cc1Br)c1nnc(C)n1-2` [Compound 9], for the setting “Hep G2 cells, 4 h”, the “BRD2 depletion by In-Cell Western” value is “dose-dependent depletion of BRD2”. For `O=C1Nc2ccc(Br)cc2C1=Cc1cc(Br)c(O)c(Br)c1` [Compound 2], for the setting “Hep G2 cells, pretreated with compound at 30 μM 1 h, then 9 (10 μM, 4 h), single repeats, Fig. 4h”, the “BRD2/Vinculin intensity (relative to control group)” value is 45.5673 and 52.7494 and 40.9253 and 42.2632 and 42.726. Also, the “Value (Mean ± SD): Relative BRD2 levels remaining in Hep G2 cells after treatment with compounds followed by treatment with 9, with DMSO control for normalization” value (qualitative ICW assay, pretreated at 30 μM 1 h, then 9 (10 μM, 4 h), Supplementary Table 1) amounted to 44.85 ± 4.23.
